Experiment: in vitro
Details: human, hela cells, % viability

COc1cccc(N2C(=O)/C(=C/c3ccc(O)c(O)c3)SC2=S)c1 [CBK263096]
viability at 28.5 h, 10 µM: 94.7%

CC(C)COc1ccccc1C(=O)NCCC(=O)O [CBK033507]
viability at 28.5 h, 10 µM: 102%

CCn1c(-c2ccc3c(c2)OCCO3)cnc1SCC(=O)c1cc(C)[nH]c1C [CBK297880]
viability at 28.5 h, 10 µM: 89.4%

COc1ccc(CCNCc2cccc(Cl)c2)cc1 [CBK058787]
viability at 28.5 h, 10 µM (bulk resorufin, single well): 90%

Cc1cc(NCc2ccccc2)nc2[nH]nc(N)c12 [CBK287931]
viability at 28.5 h, 10 µM: 87.7%

N#Cc1ccc(CNC(=O)N2CCCC(CO)C2)cc1 (centres unmarked) [CBK156043]
viability at 28.5 h, 10 µM: 94.3%

Nc1nccc(-c2cc(OCC(F)(F)F)ccc2OCC(F)(F)F)n1 [CBK005948]
viability at 28.5 h, 10 µM: 94.6%

CCOC(=O)C1(c2ccccc2)CCN(C(=O)Cc2ccsc2)CC1 [CBK132172]
viability at 28.5 h, 10 µM (bulk resorufin, single well): 93%

CC(C)n1ncc2cc(C(=O)Nc3ncccc3O)cnc21 [CBK305751]
viability at 28.5 h, 10 µM: 109%

Cc1ccc(NCc2nc3ccccc3n2Cc2ccccc2)cc1C [CBK263756]
viability at 28.5 h, 10 µM: 98.4%

N#Cc1ccc(Cn2cnc(NC(=O)c3cnccn3)n2)cc1 [CBK305233]
viability at 28.5 h, 10 µM: 88.5%

COc1c(Cl)cc(Cl)cc1CNC(C)(C)CO [CBK270212C]
viability at 28.5 h, 10 µM: 102%

CCN1CCN(c2ccc(C(=O)OC)cc2NC(=O)c2ccccc2Cl)CC1 [CBK270267]
viability at 28.5 h, 10 µM: 98.3%

c1ccc(Cn2ccc3c(N4CCNCC4)nccc32)cc1 [CBK051672C]
viability at 28.5 h, 10 µM: 87.9%

O=C(Nc1ccccc1C(=O)N1CCCC1)c1ccccc1CCc1ccccc1 [CBK268608]
viability at 28.5 h, 10 µM: 104%

c1csc(-c2nc3[nH]c4ccccc4n3n2)c1 [CBK264118]
viability at 28.5 h, 10 µM: 102%

Cc1cc2ccccc2n2c(=O)n(CC(=O)N3CCC(C)CC3)nc12 [CBK283881]
viability at 28.5 h, 10 µM: 92.7%

Cc1cc(C)n(C(=O)CCC(=O)Nc2cccc(Cl)c2C)n1 [CBK263851]
viability at 28.5 h, 10 µM: 99.3%

Sc1nnc(COc2ccccc2)n1/N=C/c1ccncc1 [CBK265360]
viability at 28.5 h, 10 µM: 100%

O=C(c1ccccc1F)N1CCC(n2cnc3cccnc32)CC1 [CBK283937]
viability at 28.5 h, 10 µM: 87.5%

Cc1cc2ncc3c(n2n1)NC(c1ccc(Cl)cc1Cl)NC3=O (centres unmarked) [CBK291167]
viability at 28.5 h, 10 µM: 90.8%

O[C@@]1(c2ccccn2)CC[C@H]2CN(CC3CCCCC3)C[C@H]21 [CBK282996]
viability at 28.5 h, 10 µM: 96.9%

Cc1ccc(NC(=O)Nc2ccc3cc(Br)cnc3n2)c(C)c1 [CBK063269]
viability at 28.5 h, 10 µM: 85.8%

CC(C)(C)c1cc(C(=O)N2CCN(c3ncccn3)CC2)n(Cc2ccc(Cl)cc2Cl)n1 [CBK107294]
viability at 28.5 h, 10 µM: 105%

O=C1N[C@]2(CCc3ccccc31)CN(Cc1ccsc1)C[C@H]2CO [CBK284793]
viability at 28.5 h, 10 µM: 90.7%

CN(C)CCN(C)C(=O)c1ccc(-c2cc(C(F)(F)F)cc(C(F)(F)F)c2)nc1N(C)C [CBK106069]
viability at 28.5 h, 10 µM: 97%

O=C(c1ccc2[nH]nnc2c1)N1CCc2ccccc2C1 [CBK200332]
viability at 28.5 h, 10 µM: 103%

NS(=O)(=O)c1ccc(CCNC(=O)c2ccc([N+](=O)[O-])cc2)cc1 [CBK263773]
viability at 28.5 h, 10 µM: 104%

COc1cc(CNC(=O)NC(=O)C2CCN(CCc3c(-c4ccccc4)[nH]c4ccccc34)CC2)cc(OC)c1OC [CBK034859]
viability at 28.5 h, 10 µM: 91.7%

Cn1ccnc1CN(CCCn1ccnc1)Cc1ccccc1F [CBK283022]
viability at 28.5 h, 10 µM: 102%

O=C(Nc1ccc2oc(-c3cccnc3)nc2c1)c1ccc(N2CCOCC2)c([N+](=O)[O-])c1 [CBK268664]
viability at 28.5 h, 10 µM: 100%

CCn1c2cc(C)sc2c2cnn(CC(=O)N(C)C)c(=O)c21 [CBK284173]
viability at 28.5 h, 10 µM: 85%

Nc1ncc(-c2ccc(C(=O)N3CCOCC3)cc2)cc1C(=O)Nc1ccc(C(F)(F)F)cc1 [CBK160204]
viability at 28.5 h, 10 µM: 90.6%

COc1ccc(C(NC(=O)NNC(=O)CCC(=O)c2ccc(F)cc2)c2ccccc2C)cn1 (centres unmarked) [CBK083659]
viability at 28.5 h, 10 µM: 99%

CCN1CCN(Cc2nc3c(c(=O)n(C)c(=O)n3C)n2Cc2c(F)cccc2Cl)CC1 [CBK269236]
viability at 28.5 h, 10 µM: 108%

CC(=O)Nc1cccc(-c2nccnc2N[C@H](CO)C(C)C)c1 [CBK036611]
viability at 28.5 h, 10 µM: 97%

O=C(O)CCc1ccc(-c2cccs2)n1CCc1ccccc1 [CBK265983]
viability at 28.5 h, 10 µM: 113%

NC1=NNC2=C(c3ccc(F)cc3)NNN12 [CBK093659]
viability at 28.5 h, 10 µM: 86%

O=C(c1cccc2ncccc12)N1CC[C@@H](c2ccccc2)[C@H](O)C1 [CBK283716]
viability at 28.5 h, 10 µM: 84.3%

OCCN(Cc1cccnc1)Cc1cccn1-c1ccc(F)cc1 [CBK283023]
viability at 28.5 h, 10 µM: 95.9%

CC(C)C(=O)N1CC2(CCN(Cc3ccc(C(C)C)cc3)CC2)c2ccccc21 [CBK122702]
viability at 28.5 h, 10 µM: 98.8%

CC(C)(C)OC(=O)N1CCC(NCCc2ccccn2)C1 (centres unmarked) [CBK304839]
viability at 28.5 h, 10 µM: 94.2%

CS(=O)(=O)N1CCC2(CC1)Cn1c(cc3ccccc31)C(=O)O2 [CBK282820]
viability at 28.5 h, 10 µM: 87.1%

CC(=O)Oc1c(C)cc(CN(C)C(C)c2ccncc2)cc1C (centres unmarked) [CBK306915]
viability at 28.5 h, 10 µM: 73.2%

CC(=O)Nc1ccc(S(=O)(=O)NNC(=O)c2cccc(Cl)c2)cc1 [CBK261694]
viability at 28.5 h, 10 µM: 89.4%

CN(C)CCCNC(=O)c1cc2cc(Cl)cc(Cl)c2oc1=O [CBK269132C]
viability at 28.5 h, 10 µM: 90.2%

CC1CCN(c2ccc(C(C)NC(=O)Cn3cccn3)cc2)CC1 (centres unmarked) [CBK281725]
viability at 28.5 h, 10 µM: 86.1%

COc1ccc(CNC(=O)CSc2cnn[nH]2)cc1 [CBK269881]
viability at 28.5 h, 10 µM: 85.6%

CS(=O)(=O)c1ccc(-c2ccc3c(c2)COC(C2CCN(C(=O)c4ccccc4O)CC2)O3)cc1 (centres unmarked) [CBK158682]
viability at 28.5 h, 10 µM: 85.3%

CCN(C)Cc1cccc(CNc2ncnc3c2cnn3CCC#N)c1 [CBK305959]
viability at 28.5 h, 10 µM: 92.2%

Cc1cc(NC(=O)c2ccc(S(=O)(=O)N(C)C)cc2)nc2c1c(=O)oc1ccccc12 [CBK291135]
viability at 28.5 h, 10 µM: 104%

CCc1nc2ccc(C(=O)Nc3cccc(NS(C)(=O)=O)c3)cn2c1N(C)CCCc1ccccc1 [CBK146670]
viability at 28.5 h, 10 µM: 101%

CCOc1ccc(Nc2nc(-c3ccc(F)cc3)c(CC(=O)O)s2)cc1 [CBK296064]
viability at 28.5 h, 10 µM: 99.3%

Cc1c(-c2cccc(C(=O)N(CCO)C3CCS(=O)(=O)C3)c2)cnn1C (centres unmarked) [CBK307621]
viability at 28.5 h, 10 µM: 86.5%

CC(C)NC(=O)N[C@H]1CCN2C(=O)N(c3ccc(F)c(Cl)c3)C(=O)[C@@H]2C1 [CBK289540]
viability at 28.5 h, 10 µM: 83.1%

Cc1cc2cc3n(c2nn1)N=C(Cl)CC3 [CBK019458]
viability at 28.5 h, 10 µM: 91.4%

CCOC(=O)CN1CCN(c2nccnc2Oc2ccc(OC)c(OC)c2)CC1 [CBK083052T]
viability at 28.5 h, 10 µM: 103%

CC(C)CC(=O)N1CCC(n2c(=O)oc3ccc(Cl)cc32)CC1 [CBK285477]
viability at 28.5 h, 10 µM: 105%

CNc1c(C)cc([N+](C)(C)C)cc1C [CBK261007I]
viability at 28.5 h, 10 µM: 95.3%

O=C(Cc1cccc2ccccc12)NC(=S)Nc1ccc(S(=O)(=O)N2CCCCC2)cc1 [CBK266283]
viability at 28.5 h, 10 µM: 106%

CCOC(=O)c1cnc(C2CC2)nc1NCc1cccc(C)c1C [CBK114707]
viability at 28.5 h, 10 µM: 102%

Cc1ccc(NC(=O)c2c[nH]c(=O)[nH]c2=O)cc1 [CBK113246]
viability at 28.5 h, 10 µM: 95.7%

O=C1CCCN1CCCNC(=O)C1(c2ccccc2)COc2ccccc21 (centres unmarked) [CBK017653]
viability at 28.5 h, 10 µM: 92.3%

COCCOC(=O)C1=C(C)N(c2ccc(C(=O)O)cc2)C(=O)NC1c1ccccc1Cl (centres unmarked) [CBK296986]
viability at 28.5 h, 10 µM: 97%

Cc1cccnc1CN1CCN(C(=O)NCCSc2nncn2C)CC1 [CBK306949]
viability at 28.5 h, 10 µM: 89.9%

OCCCNc1nccnc1-c1ccc(F)cc1 [CBK037348]
viability at 28.5 h, 10 µM: 109%

COc1ccc(Nc2cc(-c3cccc(N)c3)ncn2)c(C)c1 [CBK091035]
viability at 28.5 h, 10 µM: 97.1%

NC(=O)CN1CCC2(CCN(C(=O)c3cc(F)c(F)cc3F)C2)C1 (centres unmarked) [CBK132140]
viability at 28.5 h, 10 µM: 86.6%

Cc1noc(C)c1C(=O)N1CCN(CCc2ccccc2)CC1 [CBK200225]
viability at 28.5 h, 10 µM: 95.8%

O=C1Nc2ccc(-c3ccccc3F)cc2C(=O)N2CCN(C(=O)c3cccnc3)C[C@H]12 [CBK289591]
viability at 28.5 h, 10 µM: 111%

CNS(=O)(=O)c1c(C)nn(-c2ccccc2)c1C [CBK086715]
viability at 28.5 h, 10 µM: 102%

Cc1ccc(N2C(=O)N[C@@H]3CCN(C(=O)c4ccc(C(C)(C)C)cc4)[C@@H]3C2=O)cc1 [CBK289284]
viability at 28.5 h, 10 µM: 98.8%

O=C(CCN1CCOCC1)NNC(=O)Nc1cccc(C(F)(F)F)c1 [CBK269017]
viability at 28.5 h, 10 µM: 104%

CC1CN(c2cc(CO)c(F)cn2)CC2(CCOC2)O1 (centres unmarked) [CBK304772]
viability at 28.5 h, 10 µM: 93.8%

C=CCOc1c(CNc2cccc(C(=O)O)c2)cccc1OC [CBK074432]
viability at 28.5 h, 10 µM: 95.6%

COc1cccc(Cn2c(=O)c3sccc3n(CC(=O)NCc3ccc(C)cc3)c2=O)c1 [CBK300533]
viability at 28.5 h, 10 µM: 80.8%

COc1ccc(C(=O)C2=C(O)C(=O)N(CCN3CCNCC3)C2c2ccc(Cl)c(Cl)c2)cc1 (centres unmarked) [CBK264616]
viability at 28.5 h, 10 µM: 95.1%

Cc1onc(-c2ccccc2)c1CNC(=O)c1cncnc1 [CBK144098]
viability at 28.5 h, 10 µM: 90.6%

Cc1nc(Oc2ccccc2)c2c3c(sc2n1)CCCC3 [CBK131919]
viability at 28.5 h, 10 µM: 101%

C=CCNCc1cc2c(C)nn(-c3ccccc3)c2[nH]c1=O [CBK282898]
viability at 28.5 h, 10 µM: 88.7%

Cc1ccc(C)c(NC(CC(=O)c2ccccc2)C(=O)O)c1 (centres unmarked) [CBK265485]
viability at 28.5 h, 10 µM: 102%

Nc1nc(N)n(-c2ccccc2)n1 [CBK026515]
viability at 28.5 h, 10 µM: 104%

c1ccc(C(CCN2CCc3ccccc3C2)c2ccccc2)cc1 [CBK126404]
viability at 28.5 h, 10 µM: 99.1%

CO/N=C(/C(=O)O)c1cn2cc(Br)ccc2n1 [CBK260925G]
viability at 28.5 h, 10 µM: 87.2%

COc1cc(C=C2C(=O)NC(=S)NC2=O)ccc1OCc1c(C)no[n+]1[O-] [CBK263467]
viability at 28.5 h, 10 µM (bulk resorufin, single well): 95.8%

COc1ccc(-c2noc(CN(C)C(=O)c3cccs3)n2)cc1 [CBK270286]
viability at 28.5 h, 10 µM: 89.6%

COc1ccc(C2(C(=O)NCc3ccc4c(c3)OCO4)CC2)cc1 [CBK149829]
viability at 28.5 h, 10 µM: 103%

COC(=O)C#CCNc1cc(Cl)ccc1Cl [CBK025852]
viability at 28.5 h, 10 µM: 57.6%

COc1ccc(O)c(CN2CCN(Cc3ccc(Cl)cc3)CC2)c1 [CBK263660]
viability at 28.5 h, 10 µM (bulk resorufin, single well): 110%

Source: article PMC12040169 (PLOS Biology, 2025)
